“And” between values parts separate entries of the source, which are not always exact repeats. Equal values may be shown once. Toxic doses and inconclusive results are not listed.
Tested on: BDF1 mice, P388 leukemia ip, median survival T/C
Assay: NCI In Vivo Anticancer Drug Screen. Data for tumor model P388 Leukemia (intraperitoneal) in B6D2F1 (BDF1) mice
Settings: endpoint: median survival time, higher = longer survival
Method in brief: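 Transplantable tumour in mice; compound vs vehicle dosing; survival scored; ratio of treated to control reported.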

[1] = dose: 12.5 mg/kg/injection, schedule: Q01DX009 (ip), vehicle: Klucel (hydroxypropylcellulose) (HPC)
[2] = dose: 25.0 mg/kg/injection, schedule: Q01DX009 (ip), vehicle: saline
[3] = dose: 50.0 mg/kg/injection, schedule: Q01DX009 (ip), vehicle: saline
[4] = dose: 50.0 mg/kg/injection, schedule: Q01DX009 (ip), vehicle: Klucel (hydroxypropylcellulose) (HPC)
[5] = dose: 100.0 mg/kg/injection, schedule: Q01DX009 (ip), vehicle: Klucel (hydroxypropylcellulose) (HPC)
[6] = dose: 200.0 mg/kg/injection, schedule: Q01DX009 (ip), vehicle: Klucel (hydroxypropylcellulose) (HPC)
[7] = dose: 400.0 mg/kg/injection, schedule: Q01DX009 (ip), vehicle: Klucel (hydroxypropylcellulose) (HPC)
[8] = dose: 50.0 mg/kg/injection, schedule: Q01DX009 (ip), vehicle: saline with Tween-80
[9] = dose: 100.0 mg/kg/injection, schedule: Q01DX009 (ip), vehicle: saline with Tween-80
[10] = dose: 200.0 mg/kg/injection, schedule: Q01DX009 (ip), vehicle: saline with Tween-80
[11] = dose: 400.0 mg/kg/injection, schedule: Q01DX009 (ip), vehicle: saline with Tween-80
[12] = dose: 100.0 mg/kg/injection, schedule: Q04DX003 (ip), vehicle: Klucel (hydroxypropylcellulose) (HPC)
[13] = dose: 200.0 mg/kg/injection, schedule: Q04DX003 (ip), vehicle: Klucel (hydroxypropylcellulose) (HPC)
[14] = dose: 50.0 mg/kg/injection, schedule: Q04DX003 (ip), vehicle: saline with Tween-80
[15] = dose: 100.0 mg/kg/injection, schedule: Q04DX003 (ip), vehicle: saline with Tween-80

Structure (SMILES): CC(=O)Nc1c(Cl)c(Cl)c2c(c1Cl)Cc1cc(Br)ccc1-2
- T/C (dose: 8.25 mg/kg/injection, schedule: Q01DX009 (ip), vehicle: Klucel (hydroxypropylcellulose) (HPC)): 100 % of control and 113 % of control
- T/C [1]: 100 % of control and 118 % of control
- T/C (dose: 18.75 mg/kg/injection, schedule: Q01DX009 (ip), vehicle: Klucel (hydroxypropylcellulose) (HPC)): 100 % of control and 109 % of control
- T/C (dose: 25.0 mg/kg/injection, schedule: Q01DX009 (ip), vehicle: Klucel (hydroxypropylcellulose) (HPC)): 110 % of control
- T/C [2]: 90 % of control
- T/C [3]: 95 % of control

Structure (SMILES): NOCc1c(F)c(F)c(F)c(F)c1F
- T/C (dose: 50.0 mg/kg/injection, schedule: Q01DX001 (ip), vehicle: saline): 113 % of control
- T/C (dose: 100.0 mg/kg/injection, schedule: Q01DX001 (ip), vehicle: saline): 104 % of control
- T/C (dose: 200.0 mg/kg/injection, schedule: Q01DX001 (ip), vehicle: saline): 95 % of control

Structure (SMILES): COc1c(C)c(OCC=C(C)C)cc(CO)c1CO
- T/C [4]: 109 % of control
- T/C [5]: 109 % of control
- T/C [6]: 100 % of control

Structure (SMILES): CC1(C)OC(=O)C(=Cc2c(Cl)cccc2Cl)C(=O)O1
- T/C (dose: 100.0 mg/kg/injection, schedule: Q01DX001 (ip), vehicle: Klucel (hydroxypropylcellulose) (HPC)): 109 % of control
- T/C [5]: 87 % of control
- T/C (dose: 200.0 mg/kg/injection, schedule: Q01DX001 (ip), vehicle: Klucel (hydroxypropylcellulose) (HPC)): 104 % of control
- T/C [6]: 104 % of control
- T/C (dose: 400.0 mg/kg/injection, schedule: Q01DX001 (ip), vehicle: Klucel (hydroxypropylcellulose) (HPC)): 109 % of control
- T/C [7]: 100 % of control

Structure (SMILES): CCN(CC)c1nc(N(C)C)nc(N(C)C)n1
- T/C [8]: 105 % of control
- T/C [9]: 99 % of control
- T/C [10]: 104 % of control
- T/C [11]: 117 % of control

Structure (SMILES): N#Cc1ccccc1-n1c(=O)c2cc3c(=O)n(-c4ccccc4C#N)c(=O)c3cc2c1=O
- T/C [10]: 162 % of control

Structure (SMILES): OC(c1cc(C(F)(F)F)nc2c(F)cccc12)C1CCCCN1 (stereo unspecified)
- T/C (dose: 100.0 mg/kg/injection, schedule: Q01DX001 (ip), vehicle: saline with Tween-80): 91 % of control
- T/C (dose: 200.0 mg/kg/injection, schedule: Q01DX001 (ip), vehicle: saline with Tween-80): 95 % of control
- T/C (dose: 400.0 mg/kg/injection, schedule: Q01DX001 (ip), vehicle: saline with Tween-80): 100 % of control

Structure (SMILES): CN(C)c1ccc(C=O)cc1Br
- T/C [4]: 95 % of control
- T/C [5]: 95 % of control
- T/C [12]: 100 % of control
- T/C [6]: 100 % of control
- T/C [13]: 100 % of control
- T/C (dose: 400.0 mg/kg/injection, schedule: Q04DX003 (ip), vehicle: Klucel (hydroxypropylcellulose) (HPC)): 100 % of control

Structure (SMILES): CCOC(=O)c1cnc2c(OC)cccc2c1Cl
- T/C (dose: 4.0 mg/kg/injection, schedule: Q01DX009 (ip), vehicle: saline): 86 % of control
- T/C (dose: 8.0 mg/kg/injection, schedule: Q01DX009 (ip), vehicle: saline): 91 % of control
- T/C (dose: 16.0 mg/kg/injection, schedule: Q01DX009 (ip), vehicle: saline): 106 % of control
- T/C [2]: 120 % of control
- T/C [3]: 113 % of control
- T/C (dose: 50.0 mg/kg/injection, schedule: Q04DX003 (ip), vehicle: saline): 96 % of control
- T/C (dose: 100.0 mg/kg/injection, schedule: Q01DX009 (ip), vehicle: saline): 111 % of control
- T/C (dose: 100.0 mg/kg/injection, schedule: Q04DX003 (ip), vehicle: saline): 96 % of control
- T/C (dose: 200.0 mg/kg/injection, schedule: Q01DX009 (ip), vehicle: saline): 113 % of control
- T/C (dose: 200.0 mg/kg/injection, schedule: Q04DX003 (ip), vehicle: saline): 97 % of control
- T/C (dose: 400.0 mg/kg/injection, schedule: Q01DX009 (ip), vehicle: saline): 113 % of control
- T/C (dose: 400.0 mg/kg/injection, schedule: Q04DX003 (ip), vehicle: saline): 90 % of control

Structure (SMILES): Cn1nc(NC(=O)C(F)(F)F)c2ncc(-c3ccccc3)nc21
- T/C [14]: 105 % of control
- T/C [15]: 100 % of control
- T/C (dose: 200.0 mg/kg/injection, schedule: Q04DX003 (ip), vehicle: saline with Tween-80): 100 % of control

Structure (SMILES): O=C1CN(C(=O)CN2C(=O)c3ccccc3C2=O)C2(CCCCC2)O1
- T/C [15]: 100 % of control
- T/C (dose: 400.0 mg/kg/injection, schedule: Q04DX003 (ip), vehicle: saline with Tween-80): 100 % of control

Structure (SMILES): CN(C)CCCNc1nc(NCCCN(C)C)c2nc(-c3ccccc3)c(-c3ccccc3)nc2n1
- T/C (dose: 50.0 mg/kg/injection, schedule: Q01DX005 (ip), vehicle: saline with Tween-80): 104 % of control

Structure (SMILES): Cc1ccc(S(=O)(=O)N/N=C/C(=O)O)cc1
- T/C (dose: 6.25 mg/kg/injection, schedule: Q01DX009 (ip), vehicle: Klucel (hydroxypropylcellulose) (HPC)): 113 % of control and 111 % of control
- T/C (dose: 6.25 mg/kg/injection, schedule: Q01DX009 (ip), vehicle: other): 112 % of control
- T/C [1]: 124 % of control
- T/C [4]: 191 % of control and 169 % of control and 185 % of control
- T/C [5]: 90 % of control and 101 % of control
- T/C [7]: 114 % of control

Structure (SMILES): Cc1cc(C)c(S(=O)(=O)O)cc1C
- T/C [14]: 104 % of control
- T/C [15]: 100 % of control

Structure (SMILES): COC(=O)[C@@H]1[C@H](O)[C@H](C)[C@H](O)[C@H](C)/C=C\C=C(C)C(=O)Nc2c(C)c(OC(C)=O)c3c(c2O)C(=O)C(C)=C2OCOC(=C23)C(C)=C[C@@](C)(O)[C@H](O)[C@@H](C)[C@H]1OC(C)=O
- T/C (dose: 50.0 mg/kg/injection, schedule: Q01DX009 (ip), vehicle: saline + alcohol): 95 % of control
- T/C [5]: 106 % of control
- T/C (dose: 100.0 mg/kg/injection, schedule: Q01DX009 (ip), vehicle: saline + alcohol): 99 % of control
- T/C [6]: 116 % of control and 123 % of control
- T/C (dose: 200.0 mg/kg/injection, schedule: Q01DX009 (ip), vehicle: saline + alcohol): 95 % of control
- T/C [7]: 115 % of control
- T/C (dose: 400.0 mg/kg/injection, schedule: Q01DX009 (ip), vehicle: saline + alcohol): 100 % of control

Structure (SMILES): O=CC1CO1 (stereo unspecified)
- T/C (dose: 33.0 mg/kg/injection, schedule: Q01DX009 (ip), vehicle: saline sonified): 150 % of control
- T/C (dose: 33.0 mg/kg/injection, schedule: Q01DX009 (ip), vehicle: saline): 116 % of control

Structure (SMILES): Nc1ncc2[nH]c(C(F)(F)F)nc2n1
- T/C [8]: 102 % of control
- T/C [9]: 102 % of control
- T/C [10]: 105 % of control
- T/C [11]: 117 % of control

Structure (SMILES): CC[C@H]1CN2CCc3cc(OC)c(OC)cc3[C@@H]2C[C@@H]1C[C@@H]1c2cc(OC)c(OC)cc2CCN1CCN(CCCl)CCCl
- T/C (dose: 4.3 mg/kg/injection, schedule: Q04DX003 (ip), vehicle: saline with Tween-80): 121 % of control
- T/C (dose: 6.48 mg/kg/injection, schedule: Q04DX003 (ip), vehicle: saline with Tween-80): 108 % of control
- T/C (dose: 10.8 mg/kg/injection, schedule: Q04DX003 (ip), vehicle: saline with Tween-80): 119 % of control
- T/C (dose: 12.0 mg/kg/injection, schedule: Q04DX003 (ip), vehicle: saline with Tween-80): 153 % of control
- T/C (dose: 20.0 mg/kg/injection, schedule: Q04DX003 (ip), vehicle: saline with Tween-80): 157 % of control

Structure (SMILES): COc1ccc(NC(=O)Oc2ccccc2Cc2ccccc2)cc1
- T/C [12]: 100 % of control
- T/C [13]: 95 % of control

Structure (SMILES): O=C(Nc1ncc([N+](=O)[O-])s1)c1cccc([N+](=O)[O-])c1
- T/C (dose: 6.25 mg/kg/injection, schedule: Q01DX009 (ip), vehicle: saline with Tween-80): 99 % of control
- T/C (dose: 12.5 mg/kg/injection, schedule: Q01DX009 (ip), vehicle: saline with Tween-80): 94 % of control
- T/C (dose: 25.0 mg/kg/injection, schedule: Q01DX009 (ip), vehicle: saline with Tween-80): 93 % of control
